The target in experiment [1] is T1, aryl hydrocarbon receptor (AhR) (Homo sapiens, UniProt P35869).
T1 construct: DRE-Luc HepG2 cells subcultured in a 225 cm^2 flask; endogenous in cells; host or cells: HepG2 (ATCC), stably transfected with the reporter hCYP1A1/pGL4.27 (DRE-Luc HepG2)
T1 sequence (P35869 11-848): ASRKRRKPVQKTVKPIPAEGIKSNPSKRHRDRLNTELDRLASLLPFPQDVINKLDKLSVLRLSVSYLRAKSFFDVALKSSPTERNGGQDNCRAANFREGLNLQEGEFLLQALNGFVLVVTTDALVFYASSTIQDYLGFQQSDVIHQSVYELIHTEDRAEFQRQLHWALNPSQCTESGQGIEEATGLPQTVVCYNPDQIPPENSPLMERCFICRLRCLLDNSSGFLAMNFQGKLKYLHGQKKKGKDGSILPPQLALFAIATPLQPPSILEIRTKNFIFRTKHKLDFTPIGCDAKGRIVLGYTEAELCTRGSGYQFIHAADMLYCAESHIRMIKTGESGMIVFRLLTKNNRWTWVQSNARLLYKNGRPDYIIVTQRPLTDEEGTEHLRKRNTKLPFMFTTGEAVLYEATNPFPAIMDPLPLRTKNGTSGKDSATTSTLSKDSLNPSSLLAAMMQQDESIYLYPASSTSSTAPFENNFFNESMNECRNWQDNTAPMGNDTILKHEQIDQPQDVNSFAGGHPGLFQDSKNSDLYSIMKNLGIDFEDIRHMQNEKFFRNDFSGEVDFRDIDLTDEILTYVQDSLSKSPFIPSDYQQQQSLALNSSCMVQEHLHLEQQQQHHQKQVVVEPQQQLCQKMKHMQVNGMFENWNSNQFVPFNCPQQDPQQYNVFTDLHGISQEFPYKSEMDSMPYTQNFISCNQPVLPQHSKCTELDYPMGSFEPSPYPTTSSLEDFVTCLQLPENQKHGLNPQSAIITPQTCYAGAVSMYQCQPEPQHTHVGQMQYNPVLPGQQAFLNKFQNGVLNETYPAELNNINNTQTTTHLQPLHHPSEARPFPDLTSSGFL
Put plainly: AhR reporter gene assay (aryl hydrocarbon receptor antagonist activity, DRE-Luc HepG2 cells, TCDD-stimulated luciferase). The format is cell-based. As to the method:
Test Example 1 (Aryl Hydrocarbon Receptor Antagonist Activity)
An expression vector, hCYP1A1/pGL4.27 was introduced into HepG2 cells (derived from American Type Culture Collection (ATCC)) that were seeded in 6-well plates (#3810-006 (Iwaki)) at 1.2×10^6 cells/well, using Lipofectamine 3000 (#100022050 (Invitrogen)). Referring to Garrion P M et al., Fundam Appl Toxicol, 30, 194 (1996), the vector hCYP1A1/pGL4.27 incorporated the human CYP1A1 promotor region including dioxin responsive element (DRE) region of the AhR binding region into the XhoI-BglII restriction enzyme site of pGL4.27 (#E8451 (Promega)). After 24 hours, medium-1 was replaced, and after 48 hours, the medium-1 containing hygromycin B (200 to 1000 μg/mL) was subjected to drug treatment. Culturing using the medium containing hygromycin B was continued for about 1 month to clone 24 clones showing drug resistance. A cell line showing high reporter activity was selected (DRE-Luc HepG2) from drug resistant lines using as an indicator luciferase activity (Dual-Glo Luciferase substrate, #E297A (Promega)) relative to an AhR agonist, 2,3,7,8-tetrachlorodibenzo-p-dioxin (TCDD) (#ED-901-B (CIL.)).
DRE-Luc HepG2 cells subcultured in a 225 cm^2 flask (#11-0005 (Iwaki)) were washed with PBS (#1419-144 (Gibco), Lot: 1896207), and thereto was added 8 mL of Trypsin-EDTA (0.05%) (#25300-054 (Gibco)). Thereafter, an excessive liquid was removed from the mixture, and the cells were stood at room temperature for 5 minutes. Thereto was added 10 mL of medium-2, the cells were recovered through a cell strainer (#352350 (Falcon), 70 μm), and the number of cells were then counted using a hemocytometer. A cell suspension was prepared at 3×10^5 cells/mL, 100 μL/well of the cell suspension was seeded into a 96-well white plate (#136101, F96 Microwell (Nunc)), and the cells were then cultured in a CO2 incubator (5% CO2, 37° C.). After 24 hours, the medium was aspirated, and thereto was added 100 μL of an assay medium solution including the compound of the present invention, and the cells were cultured in the CO2 incubator (5% CO2, 37° C.). After 24 hours, 11 μL of an assay medium solution including 5×10^−10 M TCDD (#ED-901-B (CIL.)) was added thereto and the cells were cultured in the CO2 incubator (5% CO2, 37° C.). After 24 hours, 50 μL of a reaction substrate (#E253B, Steady-Glo Luciferase substrate (Promega)) for Firefly Luciferase enzyme reaction was added to each well, and after 5 minute-shaking, the light emission intensity was measured with Wallac ARVO 1420sx (PerkinElmer).
A general note: In a reporter assay the amount or activity of a reporter protein is the signal.

For experiment [2], the system named is immortalized megakaryocyte line (SeV2-MKCL). Put plainly: Platelet production: static culturing of immortalized megakaryocyte line. The format is cell-based. The conditions noted are these: compound final concentration 0.1 μM, static culturing 6 to 7 days, control (DMSO) set to 1; platelets = CD41, CD42b and CD42a-positive cells. As to the method: Test Example 2 (Platelet Production: Static Culturing)
The immortalized megakaryocyte line (SeV2-MKCL) obtained according to the method described in WO 2016/204256 was washed twice with D-PBS(−) and then cultured in medium not containing doxycycline to terminate forced expression. Culturing was implemented by seeding the cells at 1 mL/well in a 24-well plate (#662160 (Greiner Rio-One)) at a seeding density of 1×10^5 cells/mL followed by static culturing in the medium indicated below.
The medium was obtained by adding the following components to IMDM serving as the basal medium (concentrations indicate final concentrations).
Culturing was implemented under conditions of 37° C. and 5% CO2. At the same time, the compound of the present invention (final concentration 0.1 μM) or DMSO (control) was added and cultured for 6 to 7 days. Thereafter, the number of platelets (CD41, CD42b, and CD42a-positive cells) was measured. The measurement method was as shown below. The same procedure was performed with the control.
A portion of the culture supernatant was harvested 6 to 7 days after culturing to terminate gene expression, and suspended with the following antibodies to stain them. eFluor 450-labeled anti-CD42a antibody (#48-0428-42 (eBioscience)) PE-labeled anti-CD42b antibody (#303906 (BioLegend)) APC-labeled anti-CD41 antibody (#303710 (BioLegend)) The number of platelets was counted using FACSVerse manufactured by BD 30 minutes after the stain reaction. In the measurement of the number of platelets, the number of cells was corrected using Flow-count beads (#7547053 (Beckman Coulter)).
The number of platelets produced from one megakaryocyte cell was calculated based on the number of platelets in the sample obtained by the FACS measurement, and the result was defined as platelet production efficiency (PLT/MK) and used for evaluation of drug efficacy of the compound. In addition, the specific activity at the time when the platelet production efficiency of the control was set to 1 was indicated as fold increase.

By IC50 is commonly meant the midpoint of a concentration-inhibition curve. A low value points to inhibition by little substance. Turning to `CC1(C)COc2nc3c(NCCc4ccc(O)c(-c5cccnc5)c4)nc(-c4cncc(F)c4)nc3n21` [Example 32, 4-[2-[[2-(5-fluoropyridin-3-yl)-8,8-dimethyl-7H-purino[8,9-b][1,3]oxazol-4-yl]amino]ethyl]-2-pyridin-3-ylphenol], in experiment [1], the IC50 turned out to be 29 nM. The “Static (vs veh): fold increase of platelet production efficiency (PLT/MK)” value (shortened to “Static (vs veh): fold increase”) in experiment [2] is 6.8.

`Cc1cncc(-c2nc(NCCc3ccc(O)c(-c4cccc(C#N)c4F)c3)c3nc4n(c3n2)C(C)(C)CO4)c1` [Example 68] returned an IC50 in experiment [1] of 2.8 nM. Further, in experiment [2], the “Static (vs veh): fold increase” value is 3.2.

In experiment [1], `Cc1cncc(-c2nc(NCCc3ccc(O)c(-c4ccc(F)cc4)c3)c3nc4n(c3n2)C(C)(C)CO4)c1` [Example 25] came in with an IC50 of 4.4 nM. In addition, in experiment [2], the “Static (vs veh): fold increase” value is recorded as 5.7.

With `Cc1cncc(-c2nc(NCCc3c[nH]c4ccccc34)c3nc4n(c3n2)C(C)(C)CS4)c1` [Example 96], the IC50 in experiment [1] stood at 39 nM. In experiment [2], the “Static (vs veh): fold increase” value came to 2.7.

In turn, `CC1(C)COc2nc3c(NCCc4ccc(O)c(-c5cc(F)cc(F)c5)c4)nc(-c4cncc(F)c4)nc3n21` [Example 12] came in with an IC50 in experiment [1] of 12 nM. Besides, the “Static (vs veh): fold increase” value in experiment [2] came out at 7.6.

In experiment [1], `Cc1cncc(-c2cc(CCNc3nc(-c4cncc(F)c4)nc4c3nc3n4C(C)(C)CS3)ccc2O)c1` [Example 73] gave an IC50 of 7.3 nM. Also, in experiment [2], the “Static (vs veh): fold increase” value worked out at 7.9.

On to `Cc1cncc(-c2nc(NCCc3ccc(O)c(-c4cc(C#N)ccc4F)c3)c3nc4n(c3n2)C(C)(C)CO4)c1` [Example 66], for which the half-inhibitory concentration (IC50) in experiment [1] amounted to 8.1 nM. In experiment [2], the “Static (vs veh): fold increase” value is reported as 4.8.

Consider `Cc1ccccc1-c1cc(CCNc2nc(-c3cncc(F)c3)nc3c2nc2n3C(C)(C)CO2)ccc1O` [Example 40], for which the IC50 in experiment [1] turned out to be 40 nM. The “Static (vs veh): fold increase” value in experiment [2] is 9.8.

In turn, `C[C@@H]1CSc2nc3c(NCCc4ccc(O)c(-c5cccc(F)c5)c4)nc(-c4cncc(F)c4)nc3n21` [Example 29] gave an IC50 in experiment [1] of 0.37 nM. Moreover, the “Static (vs veh): fold increase” value in experiment [2] was 8.4.

In experiment [1], `CC1(C)COc2nc3c(NCCc4ccc(O)c(-c5cccc(S(C)(=O)=O)c5)c4)nc(-c4cncc(F)c4)nc3n21` [Example 78] returned an IC50 of 3.9 nM. The “Static (vs veh): fold increase” value in experiment [2] was 4.3.

In experiment [1], `CC1(C)COc2nc3c(NCCc4c[nH]c5ccccc45)nc(-c4cccc(F)c4F)nc3n21` [Example 86] came in with an IC50 of 21 nM. Moreover, the “Static (vs veh): fold increase” value in experiment [2] amounted to 4.4.

In turn, `CC1(C)COc2nc3c(NCCc4ccc(O)c(-c5cccc(C#N)c5)c4)nc(-c4cncc(C(F)F)c4)nc3n21` [Example 62, 3-[5-[2-[[2-[5-(difluoromethyl)pyridin-3-yl]-8,8-dimethyl-7H-purino[8,9-b][1,3]oxazol-4-yl]amino]ethyl]-2-hydroxyphenyl]benzonitrile] came in with an IC50 in experiment [1] of 1.9 nM. In addition, in experiment [2], the “Static (vs veh): fold increase” value was found to be 5.1.

Compound `CC1(C)COc2nc3c(NCCc4ccc(O)c(-c5cccc(C#N)c5)c4)nc(-c4ccc5nccn5c4)nc3n21` [Example 63] came in with an IC50 in experiment [1] of 17 nM. Further, the “Static (vs veh): fold increase” value in experiment [2] came out at 4.8.

In the case of `COc1cccc(-c2cc(CCNc3nc(-c4cncc(F)c4)nc4c3nc3n4C(C)(C)CO3)ccc2O)c1` [Example 13, 4-[2-[[2-(5-fluoropyridin-3-yl)-8,8-dimethyl-7H-purino[8,9-b][1,3]oxazol-4-yl]amino]ethyl]-2-(3-methoxyphenyl)phenol], in experiment [1], the IC50 is 29 nM. In addition, the “Static (vs veh): fold increase” value in experiment [2] is reported as 4.7.

As to `C[C@@H]1CSc2nc3c(NCCc4ccc(O)c(-c5ccccc5)c4)nc(-c4cncc(F)c4)nc3n21` [Example 49], half-maximal inhibition in experiment [1] (IC50) required 0.36 nM. Further, in experiment [2], the “Static (vs veh): fold increase” value amounted to 5.5.

In turn, `C[C@@H]1CSc2nc3c(NCCc4ccc(O)c(-c5cccc(C#N)c5)c4)nc(-c4cncc(C#N)c4)nc3n21` [Example 61] came in with an IC50 in experiment [1] of 0.71 nM. Moreover, in experiment [2], the “Static (vs veh): fold increase” value is given as 3.9.

For the compound `CC1(C)COc2nc3c(NCCc4ccc(O)c(-c5c(F)cccc5F)c4)nc(-c4cncc(C#N)c4)nc3n21` [Example 45], in experiment [1], the IC50 came to 11 nM. For the same compound, the “Static (vs veh): fold increase” value in experiment [2] is 2.4.

In turn, `CC1(C)CSc2nc3c(NCCc4ccc(O)c(-c5ccccc5F)c4)nc(-c4cncc(F)c4)nc3n21` [Example 8] came in with an IC50 in experiment [1] of 0.11 nM. Moreover, in experiment [2], the “Static (vs veh): fold increase” value is given as 5.1.

The compound `C[C@@H]1CSc2nc3c(NCCc4ccc(O)c(-c5cncc(F)c5)c4)nc(-c4cncc(F)c4)nc3n21` [Example 71] displayed an IC50 in experiment [1] of 4.7 nM. Besides, the “Static (vs veh): fold increase” value in experiment [2] is on record as 7.2.

In the case of `CCc1cccc(-c2cc(CCNc3nc(-c4cncc(F)c4)nc4c3nc3n4C(C)(C)CO3)ccc2O)c1` [Example 15], in experiment [1], the IC50 was 5.5 nM. Besides, in experiment [2], the “Static (vs veh): fold increase” value came to 11.

On to `CC1(C)COc2nc3c(NCCc4ccc(O)c(-c5cccc(C#N)c5F)c4)nc(-c4cncc(F)c4)nc3n21` [Example 55], for which the IC50 in experiment [1] was found to be 1.2 nM. In addition, the “Static (vs veh): fold increase” value in experiment [2] stood at 6.8.
